Laboratory results from patent US20110201105A1, “LACTATION-ASSOCIATED POLYPEPTIDES” (Dairy Australia Limited, priority 2007, published 2011).

Key:
[1] = tested on: MDA-MB-231 cells; assay: MDA-MD-231 Matrigel outgrowth assay; type: cell-based; settings: MDA-MB-231 cells on Matrigel, after 5 days, compared to control (OPTIMEM)
Method: FIG. 14: Matrigel outgrowth assay. Monolayers of cells (MDA-MD-MB231) were grown to 80% confluence and collected during log phase. 5×10^3 cells were added per well (96 well format) on top of preset Matrigel (50 ul). 50 ul of bioactive supematant was added per well. Colony outgrowth was monitored over the course of the experiment and photographed after 2 (FIG. 14A) and 5 (FIG. 14B) days.
Monolayers of cells (MDA-MD-MB231) were grown in DMEM+10% FCS to 80% confluence and collected during log phase. Cells were removed from plastic using versene/trypsin (2 min/370C) and resuspended in 10 ml media. Cell were washed thrice with PBS and centrifugation. 5×10^3 cells were added per well (96 well format) on top of preset Matrigel (50 ul). 50 ul of bioactive supernatant was added per well. Colony outgrowth was monitored over the course of the experiment and photographed after 2 and 5 days.

[2] = tested on: HSC-2 oral epithelial cells; assay: Cell viability assay to assess anti- and pro-apoptotic effects (vinblastine, Alamar Blue); type: cell-based; settings: HSC-2 cells
Method: Plasmids containing Tammar wallaby LAMs were directionally cloned into the expression vector pCMV Sport 6.0, and then transfected into the human kidney cell line HK293. A total of 1 μg of LAM-containing plasmid DNA and 10 ng of pEGFP-C1 plasmid was introduced into 70% confluent HK293 cells in 2 cm^2 wells containing 500 ul of opti-MEM-1 media. Transfection success was assessed by observing green fluorescence of cells by fluorescent microscopy. After 48 hours conditioned media containing the secreted polypeptide was collected and frozen at −20° C. The media containing the secreted polypeptides was then used directly in a variety of bioactivity assays. For the assays described below, samples of secreted polypeptides were aliquoted into individual wells of 96 or 384 well plates and stored, prior to assaying, either frozen or lyophilized.
A negative control created by transfection with an insertless vector was used in all assays. For the assays described in Examples 4A, 4B, 4C and 4D results for samples were in the form of relative fluorescence units (RFU) as described herein. […] In some cases, RFU less than two standard deviations from the mean were considered significant if the LAM sample in question produced a positive result in another assay.
Vinblastine is a commonly used cytotoxic agent used in chemotherapy. It induces apoptosis in a wide variety of cell types. Caspase activation and DNA fragmentation are hallmarks of the apoptotic process.
Aliquots of the secreted polypeptide samples in 96 well plates were pipetted onto HSC-2 oral epithelial cells and the cells left for 24 hours. After this time, the cells were treated with vinblastine to induce apoptosis. After a further 48 hours, the cells were analyzed for survival using a vital dye, namely Alamar Blue (resazurin) fluorescent dye (TGR BioSciences Pty Ltd, Adelaide, Australia). This dye method is a TGR proprietary assay technology and as such would be known by a person skilled in the art. Internal controls for induction of cell death via apoptosis as well as assay performance were also included on each plate. Cell survival measurements with this technique reflected the degree of apoptosis.

Q: “LAM 13: PLA2G1B; tammar wallaby polypeptide SEQ ID NO 43, bovine polypeptide SEQ ID NO 103” was tested. Which proliferation of cells [1] did it give?
A: increased proliferation of cells

Q: And the “RFU (anti-apoptotic activity)” value ([2]; vinblastine, Alamar Blue, Mean RFU 679787, SD RFU 39919, negative control 696444 RFU)?
A: 779746 RFU

Q: What about the “anti- or pro-apoptotic activity (RFU versus mean)” value ([2]; text summary of Tables 8-11) of the same substance?
A: anti-apoptotic activity
